What all share (format): toxicity, cell-based
In one data set the test system is HEK-293T. The data set can be described thus: Incucyte cell viability with HEK293T. The note with it: human, 10 µM, compound concentration 10 uM.
For the next data set, the system named is Fibroblast. The data set can be described thus: Incucyte cell viability with human fibroblast. The conditions noted are these: 10 µM, compound concentration 10 uM.
For the next data set, the system named is U2OS. The data set can be described thus: Incucyte cell viability with U2OS. The note with it: human, 10 µM, compound concentration 10 uM.

SMILES strings stand for the structures.

The text below walks through data of ChEMBL document CHEMBL5303304, “EUbOPEN Chemogenomics Library - IncuCyte” (2023).
Note: unitless GR value; below 1 slowed growth and below 0 cell loss.

`CCN1CCN(Cc2ccc(C(=O)Nc3ccc(C)c(Oc4ccc5c(c4)CC(=O)N5)c3)cc2C(F)(F)F)CC1.Cl.Cl`: the “Growth Rate” value is listed as -0.56 with HEK-293T (6 h, replicate number 1); -0.1 in the data set on HEK-293T (6 h, replicate number 2); -0.3 in the data set on HEK-293T (12 h, replicate number 1); 0.11 in the data set with HEK-293T (12 h, replicate number 2); -0.23 in the data set on HEK-293T (18 h, replicate number 1); 0.15 with HEK-293T (18 h, replicate number 2). Besides, the “Growth Rate” value in the data set on HEK-293T (24 h, replicate number 1) was -0.13; in the data set on HEK-293T (24 h, replicate number 2), 0.14; in the data set on Fibroblast (0 h, replicate number 2), 0.42; in the data set on Fibroblast (6 h, replicate number 1), 0.34; in the data set on Fibroblast (6 h, replicate number 2), 0.36; with Fibroblast (12 h, replicate number 1) it was -0.1. The “Growth Rate” value is on record as -0.08 in the data set on Fibroblast (12 h, replicate number 2); -0.33 in the data set on Fibroblast (18 h, replicate number 1); -0.3 in the data set with Fibroblast (18 h, replicate number 2); -0.38 in the data set with Fibroblast (24 h, replicate number 1); -0.31 with Fibroblast (24 h, replicate number 2); -0.46 in the data set with U2OS (0 h, replicate number 2). For the same compound, the “Growth Rate” value in the data set with U2OS (6 h, replicate number 2) is listed as -0.37; in the data set on U2OS (12 h, replicate number 1), 0.23; in the data set with U2OS (12 h, replicate number 2) it was -0.14; in the data set with U2OS (18 h, replicate number 1) it was 0.37; in the data set with U2OS (18 h, replicate number 2), -0.02; in the data set on U2OS (24 h, replicate number 1), 0.51. Moreover, the “Growth Rate” value in the data set with U2OS (24 h, replicate number 2) is recorded as -0.01.
Take `N[C@H](C(=O)O)[C@@H]1CC(Cl)=NO1` [ACIVICIN]: the “Growth Rate” value is 0.17 in the data set with HEK-293T (0 h, replicate number 1); 0.69 with HEK-293T (6 h, replicate number 2); 0.69 in the data set with HEK-293T (12 h, replicate number 1); 0.57 with HEK-293T (12 h, replicate number 2); 0.51 in the data set on HEK-293T (18 h, replicate number 1); 0.37 in the data set on HEK-293T (18 h, replicate number 2). For the same compound, the “Growth Rate” value in the data set on HEK-293T (24 h, replicate number 1) is listed as 0.43; with HEK-293T (24 h, replicate number 2), 0.37; in the data set with Fibroblast (0 h, replicate number 1), -1; with Fibroblast (6 h, replicate number 1) it was -0.24; in the data set on Fibroblast (6 h, replicate number 2), -0.62; in the data set with Fibroblast (12 h, replicate number 1), 0.08. The “Growth Rate” value in the data set on Fibroblast (12 h, replicate number 2) is on record as 0.4; in the data set on Fibroblast (18 h, replicate number 1), 0.11; in the data set on Fibroblast (18 h, replicate number 2) it was 0.21; in the data set on Fibroblast (24 h, replicate number 1), 0.22; in the data set with Fibroblast (24 h, replicate number 2) it was 0.56; in the data set on U2OS (12 h, replicate number 1), 0.81. Moreover, the “Growth Rate” value in the data set with U2OS (18 h, replicate number 1) is on record as 0.99; in the data set with U2OS (24 h, replicate number 1) it was 0.51.
Consider `CCS(=O)(=O)Nc1cccc(Oc2cc(F)cc(Nc3ccc(I)cc3F)c2NS(=O)(=O)C2CC2)c1`, for which the “Growth Rate” value in the data set on HEK-293T (6 h, replicate number 1) was 0.37; with HEK-293T (6 h, replicate number 2), -0.1; in the data set on HEK-293T (12 h, replicate number 1), 0.34; in the data set on HEK-293T (12 h, replicate number 2) it was 0.42; in the data set with HEK-293T (18 h, replicate number 1), 0.6; in the data set on HEK-293T (18 h, replicate number 2), 0.5. Besides, the “Growth Rate” value is on record as 0.61 in the data set with HEK-293T (24 h, replicate number 1); 0.48 in the data set with HEK-293T (24 h, replicate number 2); -1 in the data set on Fibroblast (0 h, replicate number 1); 0.69 in the data set with Fibroblast (0 h, replicate number 2); 0.24 in the data set on Fibroblast (6 h, replicate number 1); -0.17 in the data set with Fibroblast (6 h, replicate number 2). Also, the “Growth Rate” value in the data set on U2OS (6 h, replicate number 1) was 0.85; in the data set on U2OS (12 h, replicate number 1), 0.89; with U2OS (12 h, replicate number 2), 0.78; in the data set on U2OS (18 h, replicate number 1) it was 0.91; with U2OS (18 h, replicate number 2) it was 1; with U2OS (24 h, replicate number 1), 0.78.
In the case of `CO[C@H]1CC[C@H](N(c2cc(F)c(Oc3ncc(Cn4nccn4)cc3C(F)(F)F)cc2C(=O)O)C(=O)[C@H]2CC[C@H](C)CC2)CC1`, the “Growth Rate” value in the data set with HEK-293T (0 h, replicate number 1) is listed as 0.27; in the data set on HEK-293T (0 h, replicate number 2), -0.25; in the data set with Fibroblast (0 h, replicate number 1), -1; in the data set on Fibroblast (6 h, replicate number 1) it was 0.07; with Fibroblast (6 h, replicate number 2) it was -0.41; in the data set with Fibroblast (18 h, replicate number 1) it was 0.76. Further, the “Growth Rate” value is 0.77 in the data set on Fibroblast (24 h, replicate number 1); 0.67 with Fibroblast (24 h, replicate number 2); 0.66 in the data set on U2OS (0 h, replicate number 1); 0.6 in the data set on U2OS (6 h, replicate number 1); 0.76 in the data set on U2OS (6 h, replicate number 2); 0.82 in the data set with U2OS (12 h, replicate number 2). Besides, the “Growth Rate” value in the data set with U2OS (18 h, replicate number 2) was 1; in the data set with U2OS (24 h, replicate number 2), 0.87.
